Key:
Pyrenophora teres = experiment: In vivo preventive test on Pyrenophora teres (net blotch on barley); conditions: 240 h, 500 ppm of active ingredient, preventive spray on barley, evaluated 10 days after inoculation, 100% = no disease, read-out: efficacy
Procedure: (§1) The active ingredients were made soluble and homogenized in a mixture of Dimethyl sulfoxide/Acetone/Tween® 80 and then diluted in water to the desired concentration.
The young plants of barley were treated by spraying the active ingredient prepared as described above. Control plants were treated only with an aqueous solution of Acetone/Dimethyl sulfoxide/Tween® 80.
After 24 hours, the plants were contaminated by spraying the leaves with an aqueous suspension of Pyrenophora teres spores. The contaminated barley plants were incubated for 48 hours at 20° C. and at 100% relative humidity and then for 8 days at 20° C. and at 70-80% relative humidity.
The test was evaluated 10 days after the inoculation. 0% means an efficacy which corresponds to that of the control plants while an efficacy of 100% means that no disease was observed.

Alternaria brassicae = experiment: In vivo preventive test on Alternaria brassicae (leaf spot on radish or cabbage); conditions: 144 h, 500 ppm of active ingredient, preventive spray on radish or cabbage, evaluated 6 days after inoculation, 100% = no disease, read-out: efficacy
Procedure: as §1
The young plants of radish or cabbage were treated by spraying the active ingredient prepared as described above. Control plants were treated only with an aqueous solution of Acetone/Dimethyl sulfoxide/Tween® 80.
After 24 hours, the plants were contaminated by spraying the leaves with an aqueous suspension of Alternaria brassicae spores. The contaminated radish or cabbage plants were incubated for 6 days at 20° C. and at 100% relative humidity.
The test was evaluated 6 days after the inoculation. 0% means an efficacy which corresponds to that of the control plants while an efficacy of 100% means that no disease was observed.

Botrytis cinerea = experiment: In vivo preventive test on Botrytis cinerea (grey mould); conditions: 500 ppm of active ingredient, preventive spray on gherkin or cabbage, evaluated 4 to 5 days after inoculation, 100% = no disease, read-out: efficacy
Procedure: as §1
The young plants of gherkin or cabbage were treated by spraying the active ingredient prepared as described above. Control plants were treated only with an aqueous solution of Acetone/Dimethyl sulfoxide/Tween® 80.
After 24 hours, the plants were contaminated by spraying the leaves with an aqueous suspension of Botrytis cinerea spores. The contaminated gherkin plants were incubated for 4 to 5 days at 17° C. and at 90% relative humidity. The contaminated cabbage plants were incubated for 4 to 5 days at 20° C. and at 100% relative humidity.
The test was evaluated 4 to 5 days after the inoculation. 0% means an efficacy which corresponds to that of the control plants while an efficacy of 100% means that no disease was observed.

[1] = tested on: Colletotrichum lindemuthianum; experiment: Colletotrichum lindemuthianum in vitro cell test; assay type: cell-based; conditions: 144 h, 20 ppm of active ingredient, liquid culture, 6 days incubation, absorbance, read-out: efficacy (inhibition of fungal growth)
Procedure: (§2) [table] Fungicides were solubilized in DMSO and the solution used to prepare the required range of concentrations. The final concentration of DMSO used in the assay was ≤1%. A spore suspension of C. lindemuthianum was prepared and diluted to the desired spore density. Fungicides were evaluated for their ability to inhibit spores germination and mycelium growth in liquid culture assay. The compounds were added in the desired concentration to the culture medium with spores. After 6 days incubation, fungi-toxicity of compounds was determined by spectrometric measurement of mycelium growth. Inhibition of fungal growth was determined by comparing the absorbance values in wells containing the fungicides with the absorbance in control wells without fungicides.

Alternaria alternata = Alternaria alternata in vitro cell test; assay type: cell-based; conditions: 120 h, 20 ppm of active ingredient, liquid culture, 5 days incubation, absorbance, read-out: efficacy (inhibition of fungal growth)
Procedure: as §2, with “was <1%.” for “was ≤1%.”, “of A. alternata” for “of C. lindemuthianum”, “inhibit spore” for “inhibit spores”, “After 5” for “After 6”

Sphaerotheca fuliginea = experiment: In vivo preventive test on Sphaerotheca fuliginea (powdery mildew on cucurbits); conditions: Podosphaera fuliginea, 192 h; 500 ppm of active ingredient; preventive spray on gherkin; evaluated 8 days after inoculation; 100% = no disease; read-out: efficacy
Procedure: as §1
The young plants of gherkin were treated by spraying the active ingredient prepared as described above. Control plants were treated only with an aqueous solution of Acetone/Dimethyl sulfoxide/Tween® 80.
After 24 hours, the plants were contaminated by spraying the leaves with an aqueous suspension of Sphaerotheca fuliginea spores. The contaminated gherkin plants were incubated for 8 days at 20° C. and at 70-80% relative humidity.
The test was evaluated 8 days after the inoculation. 0% means an efficacy which corresponds to that of the control plants while an efficacy of 100% means that no disease was observed.

Septoria tritici = Septoria tritici in vitro cell test; assay type: cell-based; conditions: Zymoseptoria tritici, 168 h; 20 ppm of active ingredient; liquid culture, 7 days incubation, absorbance; read-out: efficacy (inhibition of fungal growth)
Procedure: as §2, with “of S. tritici” for “of C. lindemuthianum”, “inhibit spore” for “inhibit spores”, “After 7” for “After 6”

Row | Compound | pest or weed control at 500 ppm (Pyrenophora teres) [%] | pest or weed control at 500 ppm (Alternaria brassicae) [%] | pest or weed control at 500 ppm (Botrytis cinerea) [%] | inhibition at 20 ppm [1] [%] | inhibition at 20 ppm (Alternaria alternata) [%] | pest or weed control at 500 ppm (Sphaerotheca fuliginea) [%] | inhibition at 20 ppm (Septoria tritici) [%]
1 | COCCc1c(Cl)nnc(Oc2cccc(C(F)(F)F)c2)c1C(=O)NCC(F)(F)c1ccc(Br)cc1Cl [I-070, N-[2-(4-bromo-2-chloro-phenyl)-2,2-difluoro-ethyl]-6-chloro-5-(2-methoxyethyl)-3-[3-(trifluoromethyl)phenoxy]pyridazine-4-carboxamide] | 90 to 100 | 90 to 100 | 90 to 100 | 90 to 100 | 90 to 100 | 90 to 100 | 90 to 100
2 | Cc1ccc(C(F)(F)CNC(=O)c2c(Oc3cccc(Cl)c3)nnc(Cl)c2C)c(C)c1 [I-790, 6-chloro-3-(3-chlorophenoxy)-N-[2-(2,4-dimethylphenyl)-2,2-difluoro-ethyl]-5-methyl-pyridazine-4-carboxamide] | – | 90 to 100 | 90 to 100 | 90 to 100 | 90 to 100 | 90 to 100 | 70 to 79
3 | Cc1ccc(C(F)(F)CNC(=O)c2c(Oc3cccc(C(F)(F)F)c3)nnc(Cl)c2-c2cccnc2)c(C)c1 [I-550, 6-chloro-N-[2-(2,4-dimethylphenyl)-2,2-difluoro-ethyl]-5-(3-pyridyl)-3-[3-(trifluoromethyl)phenoxy]pyridazine-4-carboxamide] | – | 90 to 100 | 90 to 100 | 90 to 100 | 90 to 100 | 90 to 100 | 90 to 100
